Laboratory results as given in US10899753B2, “Inhibiting agents for Bruton's tyrosine kinase” (BIOGEN MA INC., priority 2018, dated 2021).

Key:
BTK [1] = biological target: T1, BTK (Homo sapiens (Human), UniProt Q06187); experiment: In Vitro BTK Kinase Assay: BTK-POLYGAT-LS ASSAY; format: biochemical; conditions: fluorescein-labeled polyGAT peptide 100 nM, BTK enzyme 0.25 nM, 30 minutes, TRF
Procedure: In Vitro BTK Kinase Assay: BTK-POLYGAT-LS ASSAY
The purpose of the BTK in vitro assay is to determine compound potency against BTK through the measurement of IC50. […] For a typical assay, a […] aliquot of a ATP/peptide master mix (final concentration; ATP […], polyGAT 100 nM) in kinase buffer (10 mM Tris-HCl pH 7.5, 10 mM MgCl2, 200 μM Na3PO4, 5 mM DTT, 0.01% Triton X-100, and 0.2 mg/ml casein) is added to each well. […] The assay is incubated for 30 minutes before being stopped with 28 μL of a 50 mM EDTA solution. […] The plate is covered and incubated for 45 minutes at room temperature. Time resolved fluorescence (TRF) on Molecular Devices M5 (332 nm excitation; 488 nm emission; 518 nm fluorescein emission) is measured.

BTK [2] = biological target: T1, BTK; experiment: In Vitro PD Assay in Human Whole Blood (pBTK assay); format: cell-based; conditions: human heparinized whole blood, 37° C. for 30 min, total BTK capture and phosphotyrosine detection (ECL)
Procedure: In Vitro PD Assay in Human Whole Blood
Human heparinized venous blood was purchased from Bioreclamation, Inc. or SeraCare Life Sciences and shipped overnight. Whole blood was aliquoted into 96-well plate and “spiked” with serial dilutions of test compound in DMSO or with DMSO without drug. The final concentration of DMSO in all wells was 0.1%. The plate was incubated at 37° C. for 30 min. Lysis buffer containing protease and phosphatase inhibitors was added to the drug-containing samples and one of the DMSO-only samples (+PPi, high control), while lysis buffer containing protease inhibitors was added to the other DMSO-only samples (−PPi, low control). All of the lysed whole blood samples were subjected to the total BTK capture and phosphotyrosine detection method described in US20160311802, incorporated herein by reference.

T1 sequence (Q06187 whole entry): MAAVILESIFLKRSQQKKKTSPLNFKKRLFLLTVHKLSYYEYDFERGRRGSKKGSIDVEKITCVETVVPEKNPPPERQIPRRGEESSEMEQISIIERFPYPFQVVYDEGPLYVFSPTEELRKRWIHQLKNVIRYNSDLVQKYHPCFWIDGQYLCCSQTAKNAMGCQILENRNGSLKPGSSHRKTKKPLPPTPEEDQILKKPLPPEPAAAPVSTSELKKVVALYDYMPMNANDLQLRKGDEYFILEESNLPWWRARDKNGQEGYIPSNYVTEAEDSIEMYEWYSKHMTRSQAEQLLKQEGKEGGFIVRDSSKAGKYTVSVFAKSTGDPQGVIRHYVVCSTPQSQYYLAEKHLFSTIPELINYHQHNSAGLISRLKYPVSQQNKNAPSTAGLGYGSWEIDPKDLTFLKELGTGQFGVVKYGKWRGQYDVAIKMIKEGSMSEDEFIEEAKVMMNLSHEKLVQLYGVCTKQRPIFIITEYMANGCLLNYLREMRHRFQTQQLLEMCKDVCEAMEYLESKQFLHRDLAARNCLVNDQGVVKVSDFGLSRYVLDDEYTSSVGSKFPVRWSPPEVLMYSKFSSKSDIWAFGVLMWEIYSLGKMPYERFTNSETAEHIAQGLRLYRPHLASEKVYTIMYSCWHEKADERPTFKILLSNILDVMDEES

`Cc1c(CNC(=O)c2noc(C3(C)CC3)n2)ccc(-c2ncnc(Nc3cnn(C)c3)n2)c1F` [Compound 32, N-(3-fluoro-2-methyl-4-(4-((1-methyl-1H-pyrazol-4-yl)amino)-1,3,5-triazin-2-yl)benzyl)-5-(1-methylcyclopropyl)-1,2,4-oxadiazole-3-carboxamide] was tested, and the IC50 (BTK [1]) was < 1 nM and the IC50 (BTK [2]) was < 100 nM.

For `Cc1cc(-c2ncnc(Nc3cnn(C)c3)n2)c(F)cc1CNC(=O)c1nnn(C(C)(C)C)n1` [Compound 58, 2-(tert-butyl)-N-(5-fluoro-2-methyl-4-(4-((1-methyl-1H-pyrazol-4-yl)amino)-1,3,5-triazin-2-yl)benzyl)-2H-tetrazole-5-carboxamide], the IC50 (BTK [1]) was < 1 nM and the IC50 (BTK [2]) was 100 to 500 nM.

In the case of `Cc1c([C@@H](C)NC(=O)c2noc(C(C)(C)C)n2)ccc(-c2ncnc(Nc3cnn(C)c3)n2)c1F` [Compound 73, (R)-5-(tert-butyl)-N-(1-(3-fluoro-2-methyl-4-(4-((1-methyl-1H-pyrazol-4-yl)amino)-1,3,5-triazin-2-yl)phenyl)ethyl)-1,2,4-oxadiazole-3-carboxamide], the IC50 (BTK [1]) is reported as < 1 nM and the IC50 (BTK [2]) is reported as < 100 nM.

With `Cc1c(CNC(=O)c2ncc(C(C)(C)C)o2)ccc(-c2ncnc(Nc3cnn(C)c3)n2)c1F` [Compound 31, 5-(tert-butyl)-N-(3-fluoro-2-methyl-4-(4-((1-methyl-1H-pyrazol-4-yl)amino)-1,3,5-triazin-2-yl)benzyl)oxazole-2-carboxamide] the IC50 (BTK [1]) was < 1 nM and the IC50 (BTK [2]) was 500 to 10000 nM.

With `Cn1cc(Nc2ncnc(-c3ccc(CNC(=O)c4noc(C5(C)CC5)n4)c(Cl)c3F)n2)cn1` [Compound 30, N-(2-chloro-3-fluoro-4-(4-((1-methyl-1H-pyrazol-4-yl)amino)-1,3,5-triazin-2-yl)benzyl)-5-(1-methylcyclopropyl)-1,2,4-oxadiazole-3-carboxamide] the IC50 (BTK [1]) was < 1 nM and the IC50 (BTK [2]) was < 100 nM.

Work on `C[C@@H](NC(=O)c1nc(C(C)(C)C)no1)c1ccc(-c2ncnc(Nc3ccn(C)n3)n2)c(F)c1C(F)F` [Compound 83, (R)-3-(tert-butyl)-N-(1-(2-(difluoromethyl)-3-fluoro-4-(4-((1-methyl-1H-pyrazol-3-yl)amino)-1,3,5-triazin-2-yl)phenyl)ethyl)-1,2,4-oxadiazole-5-carboxamide] yielded an IC50 (BTK [1]) of 1 to 10 nM.

For `Cc1cc(-c2ncnc(Nc3cnn(C)c3)n2)c(F)cc1CNC(=O)c1cn(C(C)(C)C)nn1` [Compound 62, 1-(tert-butyl)-N-(5-fluoro-2-methyl-4-(4-((1-methyl-1H-pyrazol-4-yl)amino)-1,3,5-triazin-2-yl)benzyl)-1H-1,2,3-triazole-4-carboxamide], the IC50 (BTK [1]) was 1 to 10 nM and the IC50 (BTK [2]) was 500 to 10000 nM.

In the case of `Cc1cc(-c2ncnc(Nc3cnn(C)c3)n2)ccc1CNC(=O)c1nc(C2(CF)CC2)no1` [Compound 48, 3-(1-(fluoromethyl)cyclopropyl)-N-(2-methyl-4-(4-((1-methyl-1H-pyrazol-4-yl)amino)-1,3,5-triazin-2-yl)benzyl)-1,2,4-oxadiazole-5-carboxamide], the IC50 (BTK [1]) is reported as < 1 nM and the IC50 (BTK [2]) is reported as 100 to 500 nM.

For `Cc1c(-c2ncnc(Nc3cnn(C)c3)n2)ccc([C@@H](C)NC(=O)c2noc(C(C)(C)C)n2)c1Cl` [Compound 77, (R)-5-(tert-butyl)-N-(1-(2-chloro-3-methyl-4-(4-((1-methyl-1H-pyrazol-4-yl)amino)-1,3,5-triazin-2-yl)phenyl)ethyl)-1,2,4-oxadiazole-3-carboxamide], the IC50 (BTK [1]) was < 1 nM and the IC50 (BTK [2]) was 100 to 500 nM.

In the case of `Cn1ccc(Nc2ncnc(-c3ccc(CNC(=O)c4noc(C(C)(C)CF)n4)c(C4CC4)c3)n2)n1` [Compound 54, N-(2-cyclopropyl-4-(4-((1-methyl-1H-pyrazol-3-yl)amino)-1,3,5-triazin-2-yl)benzyl)-5-(1-fluoro-2-methylpropan-2-yl)-1,2,4-oxadiazole-3-carboxamide], the IC50 (BTK [1]) is reported as < 1 nM and the IC50 (BTK [2]) is reported as 100 to 500 nM.

For `Cn1ccc(Nc2ncnc(-c3cc4c(cc3F)[C@H](NC(=O)c3nc(C(C)(C)C)no3)CCCC4)n2)n1` [Compound 85, (R)-3-(tert-butyl)-N-(3-fluoro-2-(4-((1-methyl-1H-pyrazol-3-yl)amino)-1,3,5-triazin-2-yl)-6,7,8,9-tetrahydro-5H-benzo[7]annulen-5-yl)-1,2,4-oxadiazole-5-carboxamide], the IC50 (BTK [1]) was < 1 nM and the IC50 (BTK [2]) was < 100 nM.

In the case of `Cn1cc(Nc2ncnc(-c3ccc4c(c3)CCCC[C@H]4NC(=O)c3cnc(C(C)(C)C)o3)n2)cn1` [Compound 35, 2-tert-butyl-N-[(5R)-2-[4-[(1-methylpyrazol-4-yl)amino]-1,3,5-triazin-2-yl]-6,7,8,9-tetrahydro-5H-benzo[7]annulen-5-yl]-oxazole-5-carboxamide], the IC50 (BTK [1]) is reported as < 1 nM and the IC50 (BTK [2]) is reported as 100 to 500 nM.

For `Cn1ccc(Nc2ncnc(-c3ccc4c(c3)CN(CC(F)(F)F)CC[C@H]4NC(=O)c3noc(C(C)(C)C)n3)n2)n1` [Compound 25, 5-tert-butyl-N-[(5R)-8-[4-[(1-methylpyrazol-3-yl)amino]-1,3,5-triazin-2-yl]-2-(2,2,2-trifluoroethyl)-1,3,4,5-tetrahydro-2-benzazepin-5-yl]-1,2,4-oxadiazole-3-carboxamide], the IC50 (BTK [2]) was < 100 nM.

For `Cc1cc(-c2ncnc(Nc3cnn(C)c3)n2)ccc1CNC(=O)c1cc(C(C)(C)C)on1` [Compound 38], the IC50 (BTK [2]) was 100 to 500 nM.

With `Cn1cc(Nc2ncnc(-c3ccc(CNC(=O)c4nc(C(C)(C)C)no4)c(C(F)(F)F)c3)n2)cn1` [Compound 18, 3-(tert-butyl)-N-(4-(4-((1-methyl-1H-pyrazol-4-yl)amino)-1,3,5-triazin-2-yl)-2-(trifluoromethyl)benzyl)-1,2,4-oxadiazole-5-carboxamide] the IC50 (BTK [1]) was < 1 nM.

`Cn1ccc(Nc2ncnc(-c3ccc(CNC(=O)c4noc(C(C)(C)C)n4)c(C(F)(F)F)c3F)n2)n1` [Compound 19, 5-(tert-butyl)-N-(3-fluoro-4-(4-((1-methyl-1H-pyrazol-3-yl)amino)-1,3,5-triazin-2-yl)-2-(trifluoromethyl)benzyl)-1,2,4-oxadiazole-3-carboxamide] gave an IC50 (BTK [1]) of 1 to 10 nM.

With `C[C@@H](NC(=O)c1nc(C(C)(C)C)no1)c1ccc(-c2ncnc(Nc3cnn(C)c3)n2)c(F)c1Cl` [Compound 70, (R)-3-(tert-butyl)-N-(1-(2-chloro-3-fluoro-4-(4-((1-methyl-1H-pyrazol-4-yl)amino)-1,3,5-triazin-2-yl)phenyl)ethyl)-1,2,4-oxadiazole-5-carboxamide] the IC50 (BTK [2]) was < 100 nM.

`Cc1cc(-c2ncnc(Nc3cnn(C)c3)n2)ccc1CNC(=O)c1noc(C2[C@@H](C)[C@H]2C)n1` (stereo partly drawn) [Compound 41, 5-(2,3-cis-dimethylcyclopropyl)-N-(2-methyl-4-(4-((1-methyl-1H-pyrazol-4-yl)amino)-1,3,5-triazin-2-yl)benzyl)-1,2,4-oxadiazole-3-carboxamide] was tested, and the IC50 (BTK [2]) was 500 to 10000 nM.

For `Cc1c(CNC(=O)c2nc(C(C)(C)C)no2)ccc(-c2ncnc(Nc3ccn(C)n3)n2)c1F` [Compound 10, 3-(tert-butyl)-N-(3-fluoro-2-methyl-4-(4-((1-methyl-1H-pyrazol-3-yl)amino)-1,3,5-triazin-2-yl)benzyl)-1,2,4-oxadiazole-5-carboxamide], the IC50 (BTK [1]) was < 1 nM.

Work on `Cn1ccc(Nc2ncnc(-c3ccc(CNC(=O)c4noc(C(C)(C)C)n4)c(CC(F)F)c3)n2)n1` [Compound 67, 5-(tert-butyl)-N-(2-(2,2-difluoroethyl)-4-(4-((1-methyl-1H-pyrazol-3-yl)amino)-1,3,5-triazin-2-yl)benzyl)-1,2,4-oxadiazole-3-carboxamide] yielded an IC50 (BTK [1]) of 1 to 10 nM.

`Cc1cc(-c2ncnc(Nc3cnn(C)c3)n2)ccc1CNC(=O)c1nnc(C(C)(C)C)o1` [Compound 110, 5-(tert-butyl)-N-(2-methyl-4-(4-((1-methyl-1H-pyrazol-4-yl)amino)-1,3,5-triazin-2-yl)benzyl)-1,3,4-oxadiazole-2-carboxamide] was tested, and the IC50 (BTK [1]) was 1 to 10 nM.

For `Cn1ccc(Nc2ncnc(-c3ccc(CNC(=O)c4noc(C(C)(C)C)n4)c(C(F)(F)F)c3)n2)n1` [Compound 7, 5-(tert-butyl)-N-(4-(4-((1-methyl-1H-pyrazol-3-yl)amino)-1,3,5-triazin-2-yl)-2-(trifluoromethyl)benzyl)-1,2,4-oxadiazole-3-carboxamide], the IC50 (BTK [1]) was 1 to 10 nM.

In the case of `Cn1cc(Nc2ncnc(-c3ccc4c(c3)CN(C3COC3)CC[C@H]4NC(=O)c3cn(C(C)(C)C)nn3)n2)cn1` [Compound 24, 1-tert-butyl-N-[(5R)-8-[4-[(1-methylpyrazol-4-yl)amino]-1,3,5-triazin-2-yl]-2-(oxetan-3-yl)-1,3,4,5-tetrahydro-2-benzazepin-5-yl]triazole-4-carboxamide], the IC50 (BTK [2]) is reported as < 100 nM.

With `Cn1ccc(Nc2ncnc(-c3ccc(CNC(=O)c4nc(C(C)(C)C)no4)c(C(F)(F)F)c3)n2)n1` [Compound 8, 3-(tert-butyl)-N-(4-(4-((1-methyl-1H-pyrazol-3-yl)amino)-1,3,5-triazin-2-yl)-2-(trifluoromethyl)benzyl)-1,2,4-oxadiazole-5-carboxamide] the IC50 (BTK [1]) was 1 to 10 nM.
